According to US8822486B2, “Spiropiperidine compounds” (Eli Lilly and Company, priority 2009, dated 2014):

What was measured:
[1] = test system: mouse insulinoma cell line Min6; assay: Glucose Dependent Insulin Secretion (GDIS) assay in Min6 cells; format: cell-based; conditions: 1 μM plus 25 mM glucose compared to 25 mM glucose alone; 2 h incubation
Protocol: (§1) Because activation of GPR40 is known to result in insulin secretion which is dependent on high glucose concentrations, two separate assay systems (insulinoma cell line and primary rodent islets) are developed to further characterize compounds that are known to increase intracellular calcium in the GPR40 primary assay discussed above.
GDIS assays are performed using the mouse insulinoma cell line Min6. Min6 cells are maintained in Dulbecco's Modified Eagle's Medium (DMEM) containing non-essential amino acids, 10% FBS, […] 2-mercaptoethanol and 1% penicillin and streptomycin at 37° C. plus 5% CO2 On the day of the experiment, the cells are washed twice with 200 μl of pre-warmed Krebs-ringer buffer without glucose. Addition of 200 μL of pre-warmed Krebs-ringer buffer containing 2.5 mM glucose is used to starve the cells followed by the addition of compounds in the presence of a high concentration of glucose (25 mM). The plate is incubated at 37° C. for 2 hours. At the end of the 2 h incubation, the supernatant is gently transferred into a Millipore filter plate and spun at 200 g (gravitational force) for 3 minutes. Insulin is assayed using a Mercodia Insulin estimation kit.

[2] = test system: primary rodent pancreatic islets of Langerhans; assay: GDIS assay in primary rodent pancreatic islets; format: cell-based; conditions: male SD rat islets; different concentrations; compared to 11.2 mM glucose alone; 90 min
Description: as §1
GDIS assays using primary rodent pancreatic islets of Langerhans are also used to characterize exemplified compounds. Pancreatic islets are isolated from male SD (Sprague Dawley) rats by collagenase digestion and Histopaque density gradient separation. The islets are cultured overnight in RPMI-1640 medium with GlutaMAXn (stabilized, dipeptide form of L-glutamine (Invitrogen catalog #61870-010)) to facilitate recovery from the isolation process. Insulin secretion is determined by a 90 minute incubation in EBSS (Earle's Balances Salt Solution) buffer in a 48-well plate. Briefly, islets are first preincubated in EBSS with 2.8 mM glucose for 30 min and are then transferred to a 48-well plate (four islets/well) containing 150 μl 2.8 mM glucose and incubated with 150 μl of EBSS with 2.8 or 11.2 mM glucose in the presence or absence of test compounds for 90 minutes. The buffer is removed from the wells at the end of the incubation and assayed for insulin levels using the Rat Insulin ELISA kit (Mercodia). […]

PPARα = biological target: T1, PPARα (Homo sapiens, UniProt Q07869); assay: PPARα binding assay (SPA); conditions: concentrations up to 10 μM
T1 construct: made in house; host or cells: HEK293 (cell lysates)
T1 sequence (Q07869 1-468): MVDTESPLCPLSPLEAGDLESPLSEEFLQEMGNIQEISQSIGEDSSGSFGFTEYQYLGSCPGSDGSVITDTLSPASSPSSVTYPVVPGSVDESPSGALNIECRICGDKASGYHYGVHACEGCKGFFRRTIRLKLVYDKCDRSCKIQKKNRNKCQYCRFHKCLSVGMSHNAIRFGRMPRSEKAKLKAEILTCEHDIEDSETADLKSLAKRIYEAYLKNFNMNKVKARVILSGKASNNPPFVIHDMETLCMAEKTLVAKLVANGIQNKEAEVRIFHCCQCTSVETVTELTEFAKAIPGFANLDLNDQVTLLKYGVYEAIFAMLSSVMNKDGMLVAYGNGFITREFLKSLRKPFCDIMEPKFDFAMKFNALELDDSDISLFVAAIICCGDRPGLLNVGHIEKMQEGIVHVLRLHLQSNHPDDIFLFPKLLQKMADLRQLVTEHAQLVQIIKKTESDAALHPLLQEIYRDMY
T1 sequence (P19793 1-462 partner): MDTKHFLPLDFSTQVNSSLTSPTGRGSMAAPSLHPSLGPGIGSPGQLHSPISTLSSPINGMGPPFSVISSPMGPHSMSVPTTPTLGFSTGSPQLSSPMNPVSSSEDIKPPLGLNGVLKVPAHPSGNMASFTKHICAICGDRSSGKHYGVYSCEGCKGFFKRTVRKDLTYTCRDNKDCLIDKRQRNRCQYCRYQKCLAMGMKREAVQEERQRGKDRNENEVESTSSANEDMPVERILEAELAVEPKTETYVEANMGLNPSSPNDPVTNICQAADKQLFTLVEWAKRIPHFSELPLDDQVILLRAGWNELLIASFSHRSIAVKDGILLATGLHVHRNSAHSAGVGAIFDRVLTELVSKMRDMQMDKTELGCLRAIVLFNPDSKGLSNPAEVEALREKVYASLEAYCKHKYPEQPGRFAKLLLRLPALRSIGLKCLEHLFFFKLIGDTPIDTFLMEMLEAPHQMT
Protocol: Because GPR40 is known to be activated by ligands to PPARγ exemplified compounds are examined in PPARα, PPARδ, and PPARγ binding and functional assays to determine the selectivity of exemplified compounds for GPR40. Compounds exemplified herein are tested essentially as described below for PPAR binding and generally have binding values greater than 1000 nM with 10 μM concentrations of test compound and are thus considered negative for PPAR activity.
Binding affinities of compounds for the PPAR α, δ, and γ receptors are assessed using Scintillation Proximity Assay (SPA) technology. Biotinylated oligonucleotide Direct Repeat 2 (DR2) is used for binding the receptors to Yttrium silicate streptavidin-coated SPA beads. […] Non-specific binding is determined in the presence of 10,000 nM of the unlabeled PPAR α/δ dual agonist reference compound for the alpha and delta receptor assays and the PPARγ agonist reference compound for the gamma receptor assay. The binding reaction (100 μl per well in a 96 well [Costar 3632] plate) is incubated for 10 h and counted disintegration per minutes (dpm) on a Wallac Microbeta. Receptor binding affinity (IC50) for the compounds is determined by fitting an 11 point concentration-response curve with a 4-paramater logistic equation. K, is determined from the IC50 using the Cheng-Prussoff equation and Kd determined by saturation binding. […]

## CC#C[C@@H](CC(=O)O)c1ccc(OCc2ccc(CN3CCC4(C=Cc5ccccc54)CC3)s2)cc1 [Example 1, (3S)-3-[4-[[5-(Spiro[indene-1,4′-piperidine]-1′-ylmethyl)-2-thienyl]methoxy]phenyl]hex-4-ynoic acid]
[1]
  increase in insulin secretion: two-fold increase
[2]
  increase in insulin: 2- to 4 fold
PPARα
  PPARα binding: no binding is detected
